Test results as given in US7531482B2, “Thieno-pyrimidine compounds having fungicidal activity” (Dow AgroSciences LLC, priority 2005, dated 2009).

Legend:
Assay type in all cases: in vivo
Colletotricum lagenarium = experiment: Cucumber Anthracnose (COLLLA) whole-plant disease control test; details: Cucumis sativus, foliar; 200 ppm applied to foliage of cucumber; inoculated one day after treatment; read-out: COLLLA disease control
Erysiphe cichoracaerum = experiment: Cucumber Powdery Mildew (ERYSCI) whole-plant disease control test; details: Erysiphe, foliar; 200 ppm applied to foliage of cucumber; inoculated one day after treatment; read-out: ERYSCI disease control
Leptosphaeria nodorum = experiment: Glume Blotch of Wheat (LEPTNO) whole-plant disease control test; details: Parastagonospora nodorum, foliar; for pest or weed control at 200 ppm: 200 ppm applied to foliage of wheat, inoculated one day after treatment, read-out: LEPTNO disease control; for pest or weed control at 75 ppm: 75 ppm (footnote b), wheat foliage
Phytophthora infestans = experiment: whole plant or invertebrate; details: inoculated one day after treatment; for pest or weed control at 200 ppm: Phytophthora infestans, in Solanum lycopersicum, foliar, read-out: PHYTIN disease control, 200 ppm applied to foliage of tomato
[1] = system: Puccinia recondita tritici; experiment: Leaf Rust of Wheat (PUCCRT) whole-plant disease control test; details: 200 ppm applied to foliage of wheat, inoculated one day after treatment; for pest or weed control at 200 ppm: Puccinia recondita, foliar, read-out: PUCCRT disease control
[2] = system: Magnaporthe grisea=Pyricularia oryzae; experiment: whole plant or invertebrate; details: for pest or weed control at 8.3 ppm / pest or weed control at 200 ppm: Pyricularia oryzae, foliar; for pest or weed control at 8.3 ppm: read-out: PYRIOR disease control, 8.3 ppm (footnote c), rice foliage; for pest or weed control at 200 ppm: read-out: PYRIOR disease control, 200 ppm applied to foliage of rice
[3] = system: Mycosphaerella graminicola=Septoria tritici; experiment: Speckled Leaf Blotch of Wheat (SEPTTR) whole-plant disease control test; details: 75 ppm applied to foliage of wheat; for pest or weed control at 75 ppm: Mycosphaerella, foliar, read-out: SEPTTR disease control
[4] = inoculated one day after treatment

| SMILES | pest or weed control at 200 ppm (Colletotricum lagenarium) | pest or weed control at 200 ppm (Erysiphe cichoracaerum) | pest or weed control at 200 ppm (Leptosphaeria nodorum) | PHYTIN disease control (Phytophthora infestans; 200 ppm applied to foliage of tomato) | PUCCRT disease control [1] | PYRIOR disease control ([2]; 200 ppm applied to foliage of rice, inoculated one day after treatment) | SEPTTR disease control [3] | pest or weed control at 75 ppm (Leptosphaeria nodorum) | pest or weed control at 200 ppm (Phytophthora infestans) | pest or weed control at 200 ppm [1] | pest or weed control at 8.3 ppm [2] | pest or weed control at 75 ppm [3] | pest or weed control at 200 ppm [2, 4] |
| --- | --- | --- | --- | --- | --- | --- | --- | --- | --- | --- | --- | --- | --- |
| Clc1csc2ncnc(NCCc3ccc(Oc4ncnc5scc(Cl)c45)cc3)c12 [Compound 108] | 0 to 49% | 0 to 49% | 0 to 49% | * (* = 0–49 percent control) | * (* = 0–49 percent control) | ** (** = 50–79 percent control) | ** (** = 50–79 percent control) |  |  |  |  |  |  |
| Fc1nc(F)c(F)c(Oc2ccc(CCNc3ncnc4scc(Cl)c34)cc2)c1F [Compound 110] | 50 to 79% | 80 to 100% |  |  |  |  |  | 50 to 79% | 0 to 49% | 80 to 100% | 80 to 100% | 50 to 79% |  |
| Clc1csc2ncnc(NCCc3ccc(Oc4nc(Br)ns4)cc3)c12 [Compound 112] | 50 to 79% | 0 to 49% | 0 to 49% |  |  |  |  |  | 50 to 79% | 80 to 100% |  | 0 to 49% | 80 to 100% |
| Cc1nnsc1Oc1ccc(CCNc2ncnc3scc(Cl)c23)cc1 [Compound 114] | 50 to 79% | 80 to 100% | 50 to 79% |  |  |  |  |  | 80 to 100% | 80 to 100% |  | 50 to 79% | 80 to 100% |
| Clc1nsc(Oc2ccc(CCNc3ncnc4scc(Cl)c34)cc2)n1 [Compound 120] | 0 to 49% | 0 to 49% |  |  |  |  |  | 0 to 49% | 50 to 79% | 80 to 100% | 50 to 79% | 0 to 49% |  |
| COc1nsc(Oc2ccc(CCNc3ncnc4scc(Cl)c34)cc2)n1 [Compound 122] | 50 to 79% | 80 to 100% |  |  |  |  |  | 0 to 49% | 50 to 79% | 80 to 100% | 80 to 100% | 50 to 79% |  |
| COc1cc(CCNc2ncnc3scc(Cl)c23)ccc1Oc1cc(C(F)(F)F)ccn1 [Compound 124, (5-Chlorothieno[2,3-d]pyrimidin-4-yl)-{2-[3-methoxy-4-(4-trifluoromethylpyridin-2-yloxy)phenyl]ethyl}amine] | 50 to 79% | 80 to 100% |  |  |  |  |  | 0 to 49% | 50 to 79% | 80 to 100% | 80 to 100% | 0 to 49% |  |
| N#Cc1nccnc1Oc1ccc(CCNc2ncnc3scc(Cl)c23)cc1 [Compound 125] | 0 to 49% | 50 to 79% |  |  |  |  |  | 0 to 49% | 50 to 79% | 80 to 100% | 80 to 100% | 50 to 79% |  |
